Reference: patent US20240254138A1, “TRICYCLIC PYRIMIDINES AS CYCLIN-DEPENDENT KINASE 7 (CDK7) INHIBITORS” (JANSSEN PHARMACEUTICA NV, priority 2021, published 2024)
Read-outs that look alike come from different tables or passages of the source.

Key:
[1] = tested on: RNA Polymerase II Serine 5 phosphorylation (Rpb1 CTD, downstream substrate of CDK7) in A549 cells; assay: Imaging-based cellular RNA PolII Ser5 phosphorylation assay in A549 cells; format: cell-based, human; conditions: wild-type CDK7, RNA PolII Ser5 phosphorylation, averaged over all measurements; for CDK7_A549 Wild-type CDK7 (pIC50): A549 cells; for IC50: Homo sapiens, A549, A549 cells, read-out: CDK7_A549 Wild-type CDK7 (pIC50) (converted)
Outline: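 A549 cells, seeded 1000/well in DMEM with 1% FBS and cultured 20 h, were treated with compound for 3 h at 37 °C. Ser5-phospho-Rpb1 CTD detected by immunofluorescence imaging after fixation and methanol permeabilization; IC50 from curve fit normalized to DMSO and 10 μM reference-compound controls.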

[2] = target: CDK7/cyclinH/MAT1 trimeric complex (Homo sapiens, UniProt P50613); assay: In vitro CDK7 assay, potency of irreversible covalent inhibitors (kinact/KI), coupled PK/LDH ADP readout at 340 nm
[3] = tested on: RNA Polymerase II Serine 5 phosphorylation in A549 cells overexpressing CDK7-mutant (C312S); assay: Imaging-based cellular RNA PolII Ser5 phosphorylation assay in A549 cells overexpressing CDK7-mutant (C312S); format: cell-based, human; conditions: RNA PolII Ser5 phosphorylation, averaged over all measurements; for CDK7_A549 mutant hCDK7(pIC50): A549 cells overexpressing CDK7-mutant (C312S); for IC50: Homo sapiens, A549, A549 cells overexpressing CDK7-mutant (C312S), read-out: CDK7_A549 mutant hCDK7(pIC50) (converted)
Outline: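 A549 cells overexpressing CDK7 C312S (with endogenous wild-type CDK7) were treated with compound for 3 h at 37 °C in 1% FBS medium. Phospho-Rpb1 CTD Ser5 was immunostained after fixation and imaged. IC50 came from curve fit of % control, normalised to DMSO and 10 μM reference-compound controls.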

[4] = CDK7 (20 nM enz.) (KI, μM), 20 nM enzyme
[5] = read-out: CDK7 (20 nM enz.) (kinact, s^−1), 20 nM enzyme
[6] = read-out: CDK7 (20 nM enz.) (kinact/KI, M^−1*s^−1), 20 nM enzyme
[7] = read-out: CDK7 (kinact/KI, M^−1*s^−1), potency of irreversible covalent inhibitors, 1 mM ATP, room temperature, averaged values over all measurements

Sequence of CDK7/cyclinH/MAT1 trimeric complex (P50613 whole entry): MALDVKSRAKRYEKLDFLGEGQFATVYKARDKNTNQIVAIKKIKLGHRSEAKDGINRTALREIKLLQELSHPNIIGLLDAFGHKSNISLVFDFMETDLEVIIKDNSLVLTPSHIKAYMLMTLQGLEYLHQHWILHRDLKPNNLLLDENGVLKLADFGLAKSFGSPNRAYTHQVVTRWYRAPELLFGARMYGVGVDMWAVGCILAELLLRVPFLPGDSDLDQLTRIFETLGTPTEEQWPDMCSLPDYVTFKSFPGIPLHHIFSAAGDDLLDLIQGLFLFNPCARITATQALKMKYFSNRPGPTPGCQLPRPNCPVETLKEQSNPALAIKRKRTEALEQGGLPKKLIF
Sequence of CDK7/cyclinH/MAT1 trimeric complex (P51946 whole entry partner): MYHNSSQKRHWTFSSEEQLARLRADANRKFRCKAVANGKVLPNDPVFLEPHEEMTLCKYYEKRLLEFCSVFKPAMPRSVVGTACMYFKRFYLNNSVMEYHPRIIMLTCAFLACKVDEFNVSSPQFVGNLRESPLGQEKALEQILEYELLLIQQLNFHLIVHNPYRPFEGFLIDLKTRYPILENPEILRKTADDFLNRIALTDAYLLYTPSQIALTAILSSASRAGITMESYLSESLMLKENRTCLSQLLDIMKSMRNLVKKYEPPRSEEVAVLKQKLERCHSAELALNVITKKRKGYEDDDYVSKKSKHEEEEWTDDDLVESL
Sequence of CDK7/cyclinH/MAT1 trimeric complex (P51948 whole entry partner): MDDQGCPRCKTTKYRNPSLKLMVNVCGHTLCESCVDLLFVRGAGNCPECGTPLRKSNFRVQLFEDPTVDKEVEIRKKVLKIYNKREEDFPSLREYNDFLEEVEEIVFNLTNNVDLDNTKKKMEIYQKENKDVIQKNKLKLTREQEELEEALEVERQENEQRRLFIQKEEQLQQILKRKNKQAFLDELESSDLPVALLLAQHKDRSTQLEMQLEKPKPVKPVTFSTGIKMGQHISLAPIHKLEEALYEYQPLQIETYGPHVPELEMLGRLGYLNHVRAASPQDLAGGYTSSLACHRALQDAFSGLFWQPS

Compound	CDK7_A549 Wild-type CDK7 (pIC50) [1]	CDK7 (20 nM enz.) (kinact, s^−1) ([2]; 20 nM enzyme) [s⁻¹]	CDK7 (20 nM enz.) (kinact/KI, M^−1*s^−1) ([2]; 20 nM enzyme) [M⁻¹ s⁻¹]	Ki [2, 4] [µM]	CDK7_A549 mutant hCDK7(pIC50) [3]	IC50 [1] [nM]	IC50 [3] [nM]	kinact [2, 5] [s⁻¹]	kinact/KI [2, 6] [M⁻¹ s⁻¹]	Ki ([2]; CDK7 (KI(μM)), […], 1 mM ATP, room temperature, averaged values over all measurements) [µM]	kinact ([2]; read-out: CDK7 (kinact, s^−1), kinact = maximal rate of inactivation, 1 mM ATP, room temperature, averaged values over all measurements) [s⁻¹]	kinact/KI [2, 7] [M⁻¹ s⁻¹]	CDK7 (20 nM enz.) (kobs/[I], M^−1*s^−1) ([2]; 20 nM enzyme) [M⁻¹ s⁻¹]
C=CC(=O)N1CC(N2CC(c3cc4c(c(C)n3)OCc3c(N5CCOCC5)ccnc3N4)C2)C1 [Compound 273]	6.94	4.486e-05	945.57	0.0474	<5	–	–	–	–	–	–	–	–
C=C(F)C(=O)N1CC(N2CCC(c3cc4c(c(C)n3)OCc3c(-c5cnn(C)c5)ccnc3N4)CC2)C1 [Compound 539]	–	–	–	0.0196	–	1320	> 10000	–	–	–	–	–	–
CC#CC(=O)N1CC(N2CCC(c3cc4c(c(C)n3)OCc3c(C5CCOCC5)ccnc3N4)CC2)C1 [Compound 410]	–	–	–	0.203	–	174	> 10000	6.11e-05	300	–	–	–	–
C=CC(=O)N1CC(N2CCC(c3cc4c(c(C)n3)O[C@@H](C)c3c(C5CCOCC5)ccnc3N4)CC2)C1 (single isomer, unassigned) [Compound 247]	–	–	–	1.57	–	776	> 3980	5.48e-05	34.8	–	–	–	–
C=CC(=O)N1CC[C@@H](N2CCC(c3cc4c(c(C)n3)OCc3c(N5CCOCC5)ccnc3N4)CC2)C1 (single isomer, unassigned) [Compound 282]	–	–	–	0.0397	–	30.9	> 10000	5.01e-05	1260	–	–	–	–
C=CC(=O)N1CC(N2CCC(c3ccc4c(c3)Nc3ncc(C)c(N5CCOCC5)c3CO4)CC2)C1 [Compound 37]	–	–	–	–	–	851	> 10000	–	–	0.129	0.00011	849	–
C=CC(=O)N1CCC(N2CC(c3cc4c(c(C5CC5)n3)OCc3c(N5CCOCC5)ccnc3N4)C2)CC1 [Compound 341]	7.35	2.9e-05	655.075	0.0443	5.64	–	–	–	–	–	–	–	–
CC#CC(=O)N1CC(n2cc(-c3cc(C)c4c(c3)Nc3nccc(N5CCOCC5)c3CO4)cn2)C1 [Compound 333]	–	–	–	0.11	–	178	6760	2.12e-05	193	–	–	–	–
C=CC(=O)N1CC(N2CCC(c3ccc4c(c3)Nc3nccc(N5CCOCC5)c3CO4)CC2)C1 [Compound 107]	–	–	–	0.056	–	110	> 10000	5.28e-05	943	–	–	–	–
C=CC(=O)N1CC(N2CCC(c3cc4c(c(C)n3)OCc3c(-c5cnn(C)c5)ccnc3N4)CC2)C1 [Compound 314]	7.14	3.945e-05	602.565	0.0655	<5	–	–	–	–	–	–	–	–
C=CC(=O)Nc1cc(-c2ccc3c(c2)Nc2nccc(N4CCOCC4)c2CO3)ccn1 [Compound 24]	–	–	–	–	–	52.5	6920	–	1250	–	–	21.5	–
C=CC(=O)N1CC[C@@H](N2CC(c3cc4c(c(C)n3)O[C@H](C)c3c(C5CCOCC5)ccnc3N4)C2)C1 (single isomer, unassigned) [Compound 413]	–	–	–	0.0374	–	75.9	> 10000	4.94e-05	1320	–	–	–	–
C=CC(=O)N1CC(N2CCC(c3cc(C)c4c(c3)Nc3ncc(C#N)c(N5CCOCC5)c3CO4)CC2)C1 [Compound 156]	–	–	–	0.304	–	490	> 10000	9.03e-05	298	–	–	–	–
C=CC(=O)N1CC[C@H](N2CC(c3cc4c(c(C(F)(F)F)n3)OCc3c(N5CCOCC5)ccnc3N4)C2)C1 (single isomer, unassigned) [Compound 404]	7.13	–	–	–	5.09	–	–	–	–	–	–	–	1280.59
C=CC(=O)N1CC[C@H](N2CC(c3cc4c(c(C5CC5)n3)OCc3c(N5CCOCC5)ccnc3N4)C2)C1 (single isomer, unassigned) [Compound 447]	6.77	7.882e-05	551.654	0.143	~5	–	–	–	–	–	–	–	–
C=CC(=O)Nc1ccc(CNc2ccc3c(c2)Nc2nccc(N4CCOCC4)c2CO3)cn1 [Compound 16]	–	–	–	0.0286	–	45.7	3800	3.3e-05	1160	–	–	402	–
